Laboratory results: PMC9267968, “Continued Structural Exploration of Sulfocoumarin as Selective Inhibitor of Tumor-Associated Human Carbonic Anhydrases IX and XII” (Molecules, 2022)
Where “and” joins values, the source holds several entries; their conditions need not be identical. Identical values can stand only once.

system: not given; test: not given; conditions: not given

| melting point [°C] | SMILES |
| --- | --- |
| 111 to 112 | COc1ccc2c(c1)OS(=O)(=O)C=C2 [Compound 9, 7-Methoxybenzo[e][1,2]oxathiine 2,2-dioxide] |
| 151 to 153 | COc1ccc2c(c1)OS(=O)(=O)C=C2C [Compound 10, 7-Methoxy-4-methylbenzo[e][1,2]oxathiine 2,2-dioxide] |
| 157 to 159 | O=S1(=O)C=Cc2ccc(O)cc2O1 [Compound 11, 7-Hydroxybenzo[e][1,2]oxathiine 2,2-dioxide] |
| 172 to 175 | CC1=CS(=O)(=O)Oc2cc(O)ccc21 [Compound 12, 7-Hydroxy-4-methylbenzo[e][1,2]oxathiine 2,2-dioxide] |
| 165 to 167 | O=S1(=O)C=Cc2ccc(OCc3ccccc3)cc2O1 [Compound 13, 7-(Benzyloxy)benzo[e][1,2]oxathiine 2,2-dioxide] |
| 197 to 199 | O=S1(=O)C=Cc2ccc(OCc3ccc(F)cc3)cc2O1 [Compound 14, 7-((4-Fluorobenzyl)oxy)benzo[e][1,2]oxathiine 2,2-dioxide] |
| 180 to 183 | O=S1(=O)C=Cc2ccc(OCc3cccc(F)c3)cc2O1 [Compound 15, 7-((3-Fluorobenzyl)oxy)benzo[e][1,2]oxathiine 2,2-dioxide] |
| 215 to 217 | O=[N+]([O-])c1ccc(COc2ccc3c(c2)OS(=O)(=O)C=C3)cc1 [Compound 16, 7-((4-Nitrobenzyl)oxy)benzo[e][1,2]oxathiine 2,2-dioxide] |
| 200 to 202 | O=[N+]([O-])c1cccc(COc2ccc3c(c2)OS(=O)(=O)C=C3)c1 [Compound 17, 7-((3-nitrobenzyl)oxy)benzo[e][1,2]oxathiine 2,2-dioxide] |
| 174 to 175 | CC1=CS(=O)(=O)Oc2cc(OCc3ccccc3)ccc21 [Compound 18, 7-(benzyloxy)-4-methylbenzo[e][1,2]oxathiine 2,2-dioxide] |
| 195 to 198 | CC1=CS(=O)(=O)Oc2cc(OCc3ccc(F)cc3)ccc21 [Compound 19, 7-((4-fluorobenzyl)oxy)-4-methylbenzo[e][1,2]oxathiine 2,2-dioxide] |
| 214 to 215 | CC1=CS(=O)(=O)Oc2cc(OCc3cccc(F)c3)ccc21 [Compound 20, 7-((3-fluorobenzyl)oxy)-4-methylbenzo[e][1,2]oxathiine 2,2-dioxide] |
| 247 to 249 | CC1=CS(=O)(=O)Oc2cc(OCc3ccc([N+](=O)[O-])cc3)ccc21 [Compound 21, 7-((4-nitrobenzyl)oxy)-4-methylbenzo[e][1,2]oxathiine 2,2-dioxide] |
| 239 to 241 | CC1=CS(=O)(=O)Oc2cc(OCc3cccc([N+](=O)[O-])c3)ccc21 [Compound 22, 7-((3-nitrobenzyl)oxy)-4-methylbenzo[e][1,2]oxathiine 2,2-dioxide] |
| 180 to 183 | COc1ccc2c(c1)OS(=O)(=O)c1ccccc1-2 [Compound 25, 3-methoxydibenzo[c,e][1,2]oxathiine 6,6-dioxide] |

target: T1, hCA IX (Homo sapiens, UniProt Q16790); test: stopped-flow CO2 hydrase assay, hCA IX inhibition; assay type: biochemical; conditions: 6 h incubation of enzyme and inhibitor; mean from 3 different assays, errors 5-10%; read-out: KI (nM) CA IX
T1 construct: made in house
Experimental: (§1) For this reason, we herein report a 6 h incubation time instead.
(§2) An Applied Photophysics stopped-flow instrument was used for assaying the CA catalyzed CO2 hydration activity. […] The uncatalyzed rates were determined in the same manner and subtracted from the total observed rates. Stock solutions of inhibitor (0.1 mM) were prepared in distilled–deionized water and dilutions up to 0.01 nM were done thereafter with the assay buffer. Inhibitor and enzyme solutions were preincubated together for 6h at room temperature prior to assay, in order to allow for the formation of the E-I complex. The inhibition constants were obtained by non-linear least-squares methods using PRISM 3 and the Cheng–Prusoff equation and represent the mean from at least three different determinations. […] All CA isoforms were recombinant ones obtained in-house.

| Ki | SMILES |
| --- | --- |
| 74.9 nM | COc1ccc2c(c1)OS(=O)(=O)C=C2 [Compound 9, 7-Methoxybenzo[e][1,2]oxathiine 2,2-dioxide] |
| 97.2 nM | COc1ccc2c(c1)OS(=O)(=O)C=C2C [Compound 10, 7-Methoxy-4-methylbenzo[e][1,2]oxathiine 2,2-dioxide] |
| 55.8 nM | O=S1(=O)C=Cc2ccc(O)cc2O1 [Compound 11, 7-Hydroxybenzo[e][1,2]oxathiine 2,2-dioxide] |
| 81.7 nM | CC1=CS(=O)(=O)Oc2cc(O)ccc21 [Compound 12, 7-Hydroxy-4-methylbenzo[e][1,2]oxathiine 2,2-dioxide] |
| 55.6 nM | O=S1(=O)C=Cc2ccc(OCc3ccccc3)cc2O1 [Compound 13, 7-(Benzyloxy)benzo[e][1,2]oxathiine 2,2-dioxide] |
| 22.9 nM | O=S1(=O)C=Cc2ccc(OCc3ccc(F)cc3)cc2O1 [Compound 14, 7-((4-Fluorobenzyl)oxy)benzo[e][1,2]oxathiine 2,2-dioxide] |
| 28.4 nM | O=S1(=O)C=Cc2ccc(OCc3cccc(F)c3)cc2O1 [Compound 15, 7-((3-Fluorobenzyl)oxy)benzo[e][1,2]oxathiine 2,2-dioxide] |
| 68.9 nM and 69.8 nM | O=[N+]([O-])c1ccc(COc2ccc3c(c2)OS(=O)(=O)C=C3)cc1 [Compound 16, 7-((4-Nitrobenzyl)oxy)benzo[e][1,2]oxathiine 2,2-dioxide] |
| 40.2 nM | O=[N+]([O-])c1cccc(COc2ccc3c(c2)OS(=O)(=O)C=C3)c1 [Compound 17, 7-((3-nitrobenzyl)oxy)benzo[e][1,2]oxathiine 2,2-dioxide] |
| 49.8 nM | CC1=CS(=O)(=O)Oc2cc(OCc3ccccc3)ccc21 [Compound 18, 7-(benzyloxy)-4-methylbenzo[e][1,2]oxathiine 2,2-dioxide] |
| 14.3 nM | CC1=CS(=O)(=O)Oc2cc(OCc3ccc(F)cc3)ccc21 [Compound 19, 7-((4-fluorobenzyl)oxy)-4-methylbenzo[e][1,2]oxathiine 2,2-dioxide] |
| 33.2 nM | CC1=CS(=O)(=O)Oc2cc(OCc3cccc(F)c3)ccc21 [Compound 20, 7-((3-fluorobenzyl)oxy)-4-methylbenzo[e][1,2]oxathiine 2,2-dioxide] |
| 89.7 nM | CC1=CS(=O)(=O)Oc2cc(OCc3ccc([N+](=O)[O-])cc3)ccc21 [Compound 21, 7-((4-nitrobenzyl)oxy)-4-methylbenzo[e][1,2]oxathiine 2,2-dioxide] |
| 61.4 nM | CC1=CS(=O)(=O)Oc2cc(OCc3cccc([N+](=O)[O-])c3)ccc21 [Compound 22, 7-((3-nitrobenzyl)oxy)-4-methylbenzo[e][1,2]oxathiine 2,2-dioxide] |
| 1290 nM | COc1ccc2c(c1)OS(=O)(=O)c1ccccc1-2 [Compound 25, 3-methoxydibenzo[c,e][1,2]oxathiine 6,6-dioxide] |

target: T2, hCA II (Homo sapiens, UniProt P00918); test: stopped-flow CO2 hydrase assay, hCA II inhibition; assay type: biochemical; conditions: 6 h incubation of enzyme and inhibitor; mean from 3 different assays, errors 5-10%; read-out: KI (nM) CA II
T2 construct: made in house
Experimental: as §1, §2

| Ki [nM] | SMILES |
| --- | --- |
| 8810 | COc1ccc2c(c1)OS(=O)(=O)C=C2C [Compound 10, 7-Methoxy-4-methylbenzo[e][1,2]oxathiine 2,2-dioxide] |
| 3860 | CC1=CS(=O)(=O)Oc2cc(O)ccc21 [Compound 12, 7-Hydroxy-4-methylbenzo[e][1,2]oxathiine 2,2-dioxide] |
| > 100000 | O=S1(=O)C=Cc2ccc(OCc3ccc(F)cc3)cc2O1 [Compound 14, 7-((4-Fluorobenzyl)oxy)benzo[e][1,2]oxathiine 2,2-dioxide] |
| > 100000 | O=S1(=O)C=Cc2ccc(OCc3cccc(F)c3)cc2O1 [Compound 15, 7-((3-Fluorobenzyl)oxy)benzo[e][1,2]oxathiine 2,2-dioxide] |
| > 100000 | O=[N+]([O-])c1ccc(COc2ccc3c(c2)OS(=O)(=O)C=C3)cc1 [Compound 16, 7-((4-Nitrobenzyl)oxy)benzo[e][1,2]oxathiine 2,2-dioxide] |
| > 100000 | O=[N+]([O-])c1cccc(COc2ccc3c(c2)OS(=O)(=O)C=C3)c1 [Compound 17, 7-((3-nitrobenzyl)oxy)benzo[e][1,2]oxathiine 2,2-dioxide] |
| > 100000 | CC1=CS(=O)(=O)Oc2cc(OCc3ccccc3)ccc21 [Compound 18, 7-(benzyloxy)-4-methylbenzo[e][1,2]oxathiine 2,2-dioxide] |
| > 100000 | CC1=CS(=O)(=O)Oc2cc(OCc3ccc(F)cc3)ccc21 [Compound 19, 7-((4-fluorobenzyl)oxy)-4-methylbenzo[e][1,2]oxathiine 2,2-dioxide] |
| > 100000 | CC1=CS(=O)(=O)Oc2cc(OCc3cccc(F)c3)ccc21 [Compound 20, 7-((3-fluorobenzyl)oxy)-4-methylbenzo[e][1,2]oxathiine 2,2-dioxide] |
| > 100000 | CC1=CS(=O)(=O)Oc2cc(OCc3ccc([N+](=O)[O-])cc3)ccc21 [Compound 21, 7-((4-nitrobenzyl)oxy)-4-methylbenzo[e][1,2]oxathiine 2,2-dioxide] |
| > 100000 | CC1=CS(=O)(=O)Oc2cc(OCc3cccc([N+](=O)[O-])c3)ccc21 [Compound 22, 7-((3-nitrobenzyl)oxy)-4-methylbenzo[e][1,2]oxathiine 2,2-dioxide] |
| > 100000 | COc1ccc2c(c1)OS(=O)(=O)c1ccccc1-2 [Compound 25, 3-methoxydibenzo[c,e][1,2]oxathiine 6,6-dioxide] |

target: T3, hCA I (Homo sapiens, UniProt P00915); test: stopped-flow CO2 hydrase assay, hCA I inhibition; assay type: biochemical; conditions: 6 h incubation of enzyme and inhibitor; mean from 3 different assays, errors 5-10%; read-out: KI (nM) CA I
T3 construct: made in house
T3 sequence (P00915 whole entry): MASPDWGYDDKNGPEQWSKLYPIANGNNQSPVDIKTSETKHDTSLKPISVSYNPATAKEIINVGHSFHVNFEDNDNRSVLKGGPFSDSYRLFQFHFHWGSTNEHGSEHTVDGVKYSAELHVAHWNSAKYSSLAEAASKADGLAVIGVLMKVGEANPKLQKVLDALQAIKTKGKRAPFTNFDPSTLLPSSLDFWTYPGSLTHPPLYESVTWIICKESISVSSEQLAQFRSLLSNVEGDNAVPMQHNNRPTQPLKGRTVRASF
Experimental: as §1, §2

| Ki [nM] | SMILES |
| --- | --- |
| > 100000 | COc1ccc2c(c1)OS(=O)(=O)C=C2 [Compound 9, 7-Methoxybenzo[e][1,2]oxathiine 2,2-dioxide] |
| > 100000 | COc1ccc2c(c1)OS(=O)(=O)C=C2C [Compound 10, 7-Methoxy-4-methylbenzo[e][1,2]oxathiine 2,2-dioxide] |
| 16500 | O=S1(=O)C=Cc2ccc(O)cc2O1 [Compound 11, 7-Hydroxybenzo[e][1,2]oxathiine 2,2-dioxide] |
| 9960 | CC1=CS(=O)(=O)Oc2cc(O)ccc21 [Compound 12, 7-Hydroxy-4-methylbenzo[e][1,2]oxathiine 2,2-dioxide] |
| > 100000 | O=S1(=O)C=Cc2ccc(OCc3ccccc3)cc2O1 [Compound 13, 7-(Benzyloxy)benzo[e][1,2]oxathiine 2,2-dioxide] |
| > 100000 | O=S1(=O)C=Cc2ccc(OCc3ccc(F)cc3)cc2O1 [Compound 14, 7-((4-Fluorobenzyl)oxy)benzo[e][1,2]oxathiine 2,2-dioxide] |
| > 100000 | O=S1(=O)C=Cc2ccc(OCc3cccc(F)c3)cc2O1 [Compound 15, 7-((3-Fluorobenzyl)oxy)benzo[e][1,2]oxathiine 2,2-dioxide] |
| > 100000 | O=[N+]([O-])c1ccc(COc2ccc3c(c2)OS(=O)(=O)C=C3)cc1 [Compound 16, 7-((4-Nitrobenzyl)oxy)benzo[e][1,2]oxathiine 2,2-dioxide] |
| > 100000 | O=[N+]([O-])c1cccc(COc2ccc3c(c2)OS(=O)(=O)C=C3)c1 [Compound 17, 7-((3-nitrobenzyl)oxy)benzo[e][1,2]oxathiine 2,2-dioxide] |
| > 100000 | CC1=CS(=O)(=O)Oc2cc(OCc3ccccc3)ccc21 [Compound 18, 7-(benzyloxy)-4-methylbenzo[e][1,2]oxathiine 2,2-dioxide] |
| > 100000 | CC1=CS(=O)(=O)Oc2cc(OCc3ccc(F)cc3)ccc21 [Compound 19, 7-((4-fluorobenzyl)oxy)-4-methylbenzo[e][1,2]oxathiine 2,2-dioxide] |
| > 100000 | CC1=CS(=O)(=O)Oc2cc(OCc3cccc(F)c3)ccc21 [Compound 20, 7-((3-fluorobenzyl)oxy)-4-methylbenzo[e][1,2]oxathiine 2,2-dioxide] |
| > 100000 | CC1=CS(=O)(=O)Oc2cc(OCc3ccc([N+](=O)[O-])cc3)ccc21 [Compound 21, 7-((4-nitrobenzyl)oxy)-4-methylbenzo[e][1,2]oxathiine 2,2-dioxide] |
| > 100000 | CC1=CS(=O)(=O)Oc2cc(OCc3cccc([N+](=O)[O-])c3)ccc21 [Compound 22, 7-((3-nitrobenzyl)oxy)-4-methylbenzo[e][1,2]oxathiine 2,2-dioxide] |
| > 100000 | COc1ccc2c(c1)OS(=O)(=O)c1ccccc1-2 [Compound 25, 3-methoxydibenzo[c,e][1,2]oxathiine 6,6-dioxide] |

target: T4, hCA XII (Homo sapiens, UniProt O43570); test: biochemical; conditions: 6 h incubation of enzyme and inhibitor; mean from 3 different assays, errors 5-10%; read-out: KI (nM) CA XII
T4 construct: made in house
T4 sequence (O43570 25-354): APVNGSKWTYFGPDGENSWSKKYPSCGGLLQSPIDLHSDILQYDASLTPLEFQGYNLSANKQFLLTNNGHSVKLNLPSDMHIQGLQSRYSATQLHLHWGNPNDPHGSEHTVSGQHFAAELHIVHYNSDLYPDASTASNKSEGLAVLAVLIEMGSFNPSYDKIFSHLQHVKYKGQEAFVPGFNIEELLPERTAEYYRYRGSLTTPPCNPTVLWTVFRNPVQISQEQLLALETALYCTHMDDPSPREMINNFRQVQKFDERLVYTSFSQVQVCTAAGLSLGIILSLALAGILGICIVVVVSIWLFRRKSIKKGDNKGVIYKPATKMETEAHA
Experimental: as §1, §2

| Ki [nM] | SMILES |
| --- | --- |
| 61.4 | COc1ccc2c(c1)OS(=O)(=O)C=C2 [Compound 9, 7-Methoxybenzo[e][1,2]oxathiine 2,2-dioxide] |
| 73.9 | COc1ccc2c(c1)OS(=O)(=O)C=C2C [Compound 10, 7-Methoxy-4-methylbenzo[e][1,2]oxathiine 2,2-dioxide] |
| 42.5 | O=S1(=O)C=Cc2ccc(O)cc2O1 [Compound 11, 7-Hydroxybenzo[e][1,2]oxathiine 2,2-dioxide] |
| 55 | CC1=CS(=O)(=O)Oc2cc(O)ccc21 [Compound 12, 7-Hydroxy-4-methylbenzo[e][1,2]oxathiine 2,2-dioxide] |
| 28.3 | O=S1(=O)C=Cc2ccc(OCc3ccccc3)cc2O1 [Compound 13, 7-(Benzyloxy)benzo[e][1,2]oxathiine 2,2-dioxide] |
| 19.2 | O=S1(=O)C=Cc2ccc(OCc3ccc(F)cc3)cc2O1 [Compound 14, 7-((4-Fluorobenzyl)oxy)benzo[e][1,2]oxathiine 2,2-dioxide] |
| 46 | O=S1(=O)C=Cc2ccc(OCc3cccc(F)c3)cc2O1 [Compound 15, 7-((3-Fluorobenzyl)oxy)benzo[e][1,2]oxathiine 2,2-dioxide] |
| 94.7 | O=[N+]([O-])c1ccc(COc2ccc3c(c2)OS(=O)(=O)C=C3)cc1 [Compound 16, 7-((4-Nitrobenzyl)oxy)benzo[e][1,2]oxathiine 2,2-dioxide] |
| 77.5 | O=[N+]([O-])c1cccc(COc2ccc3c(c2)OS(=O)(=O)C=C3)c1 [Compound 17, 7-((3-nitrobenzyl)oxy)benzo[e][1,2]oxathiine 2,2-dioxide] |
| 8.6 | CC1=CS(=O)(=O)Oc2cc(OCc3ccccc3)ccc21 [Compound 18, 7-(benzyloxy)-4-methylbenzo[e][1,2]oxathiine 2,2-dioxide] |
| 41.7 | CC1=CS(=O)(=O)Oc2cc(OCc3ccc(F)cc3)ccc21 [Compound 19, 7-((4-fluorobenzyl)oxy)-4-methylbenzo[e][1,2]oxathiine 2,2-dioxide] |
| 25.7 | CC1=CS(=O)(=O)Oc2cc(OCc3cccc(F)c3)ccc21 [Compound 20, 7-((3-fluorobenzyl)oxy)-4-methylbenzo[e][1,2]oxathiine 2,2-dioxide] |
| 101 | CC1=CS(=O)(=O)Oc2cc(OCc3ccc([N+](=O)[O-])cc3)ccc21 [Compound 21, 7-((4-nitrobenzyl)oxy)-4-methylbenzo[e][1,2]oxathiine 2,2-dioxide] |
| 136 | CC1=CS(=O)(=O)Oc2cc(OCc3cccc([N+](=O)[O-])c3)ccc21 [Compound 22, 7-((3-nitrobenzyl)oxy)-4-methylbenzo[e][1,2]oxathiine 2,2-dioxide] |
| 966 | COc1ccc2c(c1)OS(=O)(=O)c1ccccc1-2 [Compound 25, 3-methoxydibenzo[c,e][1,2]oxathiine 6,6-dioxide] |
